In ChEMBL document CHEMBL3525948, “Quantitative prediction of CYP2B6 induction by estradiol during pregnancy: potential explanation for increased methadone clearance during pregnancy” (Drug Metab Dispos, 2013) one finds EC50 data, which are given here for three compounds.

In one series the test system is Hepatocyte. The experiment in a line: Induction of CYP2B6 mRNA expression in human donor hepatocytes after 48 hrs by real-time PCR method. Format: ADME, cell-based.
For the next series, the target named is T1, CYP2B6 (Homo sapiens, UniProt P20813).
T1 sequence (P20813 whole entry): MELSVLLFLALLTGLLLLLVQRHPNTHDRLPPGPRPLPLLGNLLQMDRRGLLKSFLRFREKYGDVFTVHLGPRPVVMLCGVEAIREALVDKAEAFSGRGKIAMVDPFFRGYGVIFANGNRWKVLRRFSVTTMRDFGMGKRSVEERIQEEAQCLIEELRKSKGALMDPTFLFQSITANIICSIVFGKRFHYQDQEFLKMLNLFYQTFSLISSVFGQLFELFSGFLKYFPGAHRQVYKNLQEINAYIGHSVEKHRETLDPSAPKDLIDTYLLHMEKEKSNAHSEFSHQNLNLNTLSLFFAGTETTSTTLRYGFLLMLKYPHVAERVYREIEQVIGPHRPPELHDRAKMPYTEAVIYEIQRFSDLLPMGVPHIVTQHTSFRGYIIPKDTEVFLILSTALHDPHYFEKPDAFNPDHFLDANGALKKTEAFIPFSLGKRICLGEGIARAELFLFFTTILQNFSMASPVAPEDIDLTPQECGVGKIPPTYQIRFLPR
The series can be described thus: Induction of CYP2B6 activity in human donor hepatocytes assessed as hydroxybupropion formation after 48 hrs by LC/MS method. The class given is ADME, cell-based, Hepatocyte. The conditions noted are these: probe bupropion (hydroxybupropion formation measured).

Consider `CO[C@H]1/C=C/O[C@@]2(C)Oc3c(C)c(O)c4c(O)c(c(/C=N/N5CCN(C)CC5)c(O)c4c3C2=O)NC(=O)/C(C)=C\C=C\[C@H](C)[C@H](O)[C@@H](C)[C@@H](O)[C@@H](C)[C@H](OC(C)=O)[C@@H]1C` [RIFAMPIN], for which the half-maximal effective concentration (EC50) in the series on Hepatocyte was 980 nM. The EC50 at 48 h on CYP2B6 is 1300 nM.
On to `NC(=O)N1c2ccccc2C=Cc2ccccc21` [CARBAMAZEPINE], for which the concentration for a half-maximal effect (EC50) in the series on Hepatocyte stood at 26000 nM. In addition, the EC50 at 48 h at CYP2B6 is 145000 nM.
In the same order, the values of `C[C@]12CC[C@@H]3c4ccc(O)cc4CC[C@H]3[C@@H]1CC[C@@H]2O` [ESTRADIOL] are 1900 nM and 4100 nM.
